Experimental data from article PMC7703542 (Proceedings of the National Academy of Sciences of the …, 2020).

Molecular target: PdF1 γCC (PdF1) (Paracoccus denitrificans, UniProt A1B8N8+A1B8P0)
Assay: single-molecule rotation assay, Mg-ADP inhibited pauses
Type: biochemical
Details: 1 µM ADP with 1 µM ATP, no ADP-trapping system, 0.1% LDAO

PdF1 γCC (PdF1), sequence (A1B8P0 whole entry): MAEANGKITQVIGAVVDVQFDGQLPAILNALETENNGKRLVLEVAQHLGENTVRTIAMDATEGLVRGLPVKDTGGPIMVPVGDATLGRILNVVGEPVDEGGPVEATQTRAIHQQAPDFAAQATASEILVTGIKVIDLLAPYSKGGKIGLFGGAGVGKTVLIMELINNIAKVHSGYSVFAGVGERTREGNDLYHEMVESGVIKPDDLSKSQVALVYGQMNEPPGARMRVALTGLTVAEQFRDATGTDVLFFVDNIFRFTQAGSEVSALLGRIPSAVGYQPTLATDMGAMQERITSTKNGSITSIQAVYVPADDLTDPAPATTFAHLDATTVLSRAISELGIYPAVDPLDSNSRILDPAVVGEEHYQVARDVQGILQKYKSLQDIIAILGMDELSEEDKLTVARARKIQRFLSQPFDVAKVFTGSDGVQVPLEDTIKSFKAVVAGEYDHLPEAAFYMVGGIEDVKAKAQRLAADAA
PdF1 γCC (PdF1), sequence (A1B8N8 whole entry): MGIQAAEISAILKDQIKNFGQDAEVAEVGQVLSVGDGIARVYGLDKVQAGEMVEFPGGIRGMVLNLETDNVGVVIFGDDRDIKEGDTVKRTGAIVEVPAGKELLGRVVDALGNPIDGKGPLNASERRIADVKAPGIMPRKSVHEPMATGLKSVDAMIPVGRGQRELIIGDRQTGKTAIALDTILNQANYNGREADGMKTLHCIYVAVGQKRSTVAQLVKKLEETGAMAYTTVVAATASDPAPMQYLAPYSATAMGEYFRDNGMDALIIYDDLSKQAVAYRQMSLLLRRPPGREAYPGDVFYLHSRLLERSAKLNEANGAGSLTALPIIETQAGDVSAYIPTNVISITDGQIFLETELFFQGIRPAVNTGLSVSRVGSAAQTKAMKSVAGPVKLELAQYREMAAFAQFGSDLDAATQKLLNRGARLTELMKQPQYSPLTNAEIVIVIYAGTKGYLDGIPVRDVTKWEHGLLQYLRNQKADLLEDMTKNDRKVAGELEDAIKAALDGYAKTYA
PdF1 γCC (PdF1), sequence (A1B8N9 whole entry Q115C/D214C partner): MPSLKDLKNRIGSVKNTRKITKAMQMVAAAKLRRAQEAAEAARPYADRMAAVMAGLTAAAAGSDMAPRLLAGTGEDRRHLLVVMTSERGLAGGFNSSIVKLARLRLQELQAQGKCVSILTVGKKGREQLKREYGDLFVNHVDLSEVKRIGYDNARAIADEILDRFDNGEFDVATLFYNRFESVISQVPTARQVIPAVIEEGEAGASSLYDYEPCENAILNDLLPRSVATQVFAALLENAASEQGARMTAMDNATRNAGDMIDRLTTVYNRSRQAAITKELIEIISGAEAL
PdF1 γCC (PdF1), sequence (A1B8N7 whole entry partner): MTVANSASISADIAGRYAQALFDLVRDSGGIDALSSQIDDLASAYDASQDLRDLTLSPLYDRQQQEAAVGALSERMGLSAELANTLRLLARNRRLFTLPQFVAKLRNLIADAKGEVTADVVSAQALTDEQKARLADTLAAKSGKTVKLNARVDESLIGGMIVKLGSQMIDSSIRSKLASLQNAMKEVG
PdF1 γCC (PdF1), sequence (A1B8P1 whole entry partner): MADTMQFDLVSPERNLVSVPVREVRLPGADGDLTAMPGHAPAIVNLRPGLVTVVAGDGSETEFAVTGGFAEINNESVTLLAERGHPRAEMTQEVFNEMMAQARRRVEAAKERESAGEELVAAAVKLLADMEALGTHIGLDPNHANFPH

Nc1ncnc2c1ncn2[C@@H]1O[C@H](COP(=O)(O)OP(=O)(O)O)[C@@H](O)[C@H]1O [ADP]
single-molecule rotation assay, Mg-ADP inhibited pauses: supporting the conclusion that they are a result of Mg-ADP inhibition
